In patent publication US20250064789A1, “KETOAMIDE DERIVATIVES AND PHARMACEUTICAL USES THEREOF” (priority 2022, published 2025):
Where two headings read alike, the source gives them in different places.

Target: recombinant SARS-CoV-2 M^pro (Severe acute respiratory syndrome coronavirus 2 (2019-nCoV) (SARS-CoV-2), UniProt P0DTD1)
Assay: Inhibition of SARS-CoV-2 M^pro enzyme activity (fluorescent substrate assay)
Format: biochemical
[1] = inhibition of SARS-CoV-2 M^pro enzyme activity, values given in μM, read-out: IC50
[2] = inhibition of SARS-CoV-2 M^pro enzyme activity, values in nM, read-out: IC50

SMILES | IC50 [2] [µM] | also measured
Cc1csc(CNC(=O)C(=O)[C@@H](Cc2ccccc2)NC(=O)c2ccccc2)n1 [Compound 462] |  | IC50 [1]: 40.7 ± 1.5 µM
C[C@@H](OCc1ccccc1)C(=O)N[C@H](Cc1ccccc1)C(=O)C(=O)NCc1ncccn1 [Compound 29] |  | IC50 [1]: > 5 µM
O=C(NCc1ccccn1)C(=O)[C@@H](Cc1ccccc1)NC(=O)[C@@H]1[C@H]2CCC[C@H]2CN1C(=O)COc1ccc(Cl)c(Cl)c1 [Compound 257] | 0.0718 ± 0.0001 | 
C[C@@H](OCc1cccc(OC(F)(F)F)c1)C(=O)N[C@H](Cc1ccccc1)C(=O)C(=O)NCc1ccc(Cl)cn1 [Compound 47] | 0.0141 ± 0.0001 | 
O=C(NCc1ccccn1)C(=O)[C@@H](Cc1ccccc1)NC(=O)C1(NC(=O)C2CCC(F)(F)CC2)CC1 [Compound 159] | 0.0215 ± 0.0057 | 
C[C@@H](NC(=O)C1(O)CCCCC1)C(=O)N[C@H](Cc1ccccc1)C(=O)C(=O)NCc1ccccn1 [Compound 107] | 0.052 ± 0.0002 | 
C[C@@H](OCc1ccc(Cl)c(Cl)c1)C(=O)N[C@H](Cc1ccccc1)C(=O)C(=O)NCc1ccccn1 [Compound 12] | 0.0123 ± 0.0008 | 
C[C@@H](NC(=O)c1ccccc1)C(=O)N[C@H](Cc1ccccc1)C(=O)C(=O)NCc1ccccn1 [Compound 137, N—((R)-1-(((R)-3,4-dioxo-1-phenyl-4-((pyridin-2-ylmethyl)amino)butan-2-yl)amino)-1-oxopropan-2-yl)benzamide] | 0.0221 ± 0.0077 | 
O=C(Cn1cc(C2CCC(F)(F)CC2)cn1)N[C@H](Cc1ccccc1)C(=O)C(=O)NCc1nccs1 [Compound 513] | 0.0304 ± 0.0008 | 
O=C(CN1C(=O)CN(c2ccc(F)cc2)C1=O)N[C@H](Cc1ccccc1)C(=O)C(=O)NCc1nccs1 [Compound 525] | 0.0845 ± 0.0018 | 
CC(C(=O)N[C@H](C)C(=O)N[C@H](Cc1ccccc1)C(=O)C(=O)NCc1ccccn1)C1CCCCC1 (stereo partly shown) [Compound 130] | 0.0986 ± 0.0068 | 
O=C(NCc1nccs1)C(=O)[C@@H](Cc1ccccc1)NC(=O)[C@H]1CC(F)(F)CN1C(=O)CC1CC1(F)F (stereo partly shown) [Compound 405] | 0.104 ± 0.0017 | 
O=C(NCc1nccs1)C(=O)[C@@H](Cc1ccccc1)NC(=O)[C@H]1COCCN1C(=O)C1CCCC(F)(F)C1 (stereo partly shown) [Compound 410] | 0.0253 ± 0.0017 | 
C[C@@H](NC(=O)C(F)Oc1ccc(Cl)cc1Cl)C(=O)N[C@H](Cc1ccccc1)C(=O)C(=O)NCc1ccccn1 (stereo partly shown) [Compound 94] | 0.0135 ± 0.0013 | 
C[C@@H](NC(=O)c1cc2ccccc2[nH]1)C(=O)N[C@H](Cc1ccccc1)C(=O)C(=O)NCc1nccs1 [Compound 380] | 0.0558 ± 0.0072 | 
O=C(NCc1ccccn1)C(=O)[C@@H](Cc1ccccc1)NC(=O)C1c2ccccc2CN1C(=O)C1CCC(F)(F)CC1 (stereo partly shown) [Compound 266] | 0.0344 ± 0.0023 | 
CC(C)(NC(=O)C1(F)CCCCC1)C(=O)N[C@H](Cc1ccccc1)C(=O)C(=O)NCc1ccccn1 [Compound 185] | 0.0097 ± 0.0007 | 
O=C(NCc1nccs1)C(=O)[C@@H](Cc1ccccc1)NC(=O)C1(NC(=O)C2CCC(F)(F)CC2)CCCCC1 [Compound 542] | 0.0524 ± 0.007 | 
C[C@@H](OCc1ccc(Cl)cc1)C(=O)N[C@H](Cc1ccccc1)C(=O)C(=O)NCc1ccccn1 [Compound 13] | 0.0143 ± 0.0004 | 
C[C@@H](NC(=O)C1CCCC(F)(F)C1)C(=O)N[C@H](Cc1ccccc1)C(=O)C(=O)NCc1cscn1 (stereo partly shown) [Compound 416] | 0.019 ± 0.0004 | 
C[C@@H](NC(=O)C1CCC(F)(F)CC1)C(=O)N[C@H](Cc1ccccc1)C(=O)C(=O)NCc1ccc(Cl)cn1 [Compound 120] | 0.1133 ± 0.001 | 
CN1CCC(C(=O)NC2(C(=O)N[C@H](Cc3ccccc3)C(=O)C(=O)NCc3ccccn3)CCC2)CC1=O (stereo partly shown) [Compound 189] |  | IC50 [1]: > 2.5 µM

SMILES | IC50 [2] [µM] | also measured
COc1ccc(COC(C)(C)C(=O)N[C@H](Cc2ccccc2)C(=O)C(=O)NCc2ccccn2)cc1F [Compound 21] | 0.0269 ± 0.0039 | 
C[C@@H](NC(=O)C(C)(C)c1ccccc1)C(=O)N[C@H](Cc1ccccc1)C(=O)C(=O)NCc1ccccn1 [Compound 73] | 0.0258 ± 0.0005 | 
O=C(COc1ccccc1)N[C@H](Cc1ccccc1)C(=O)C(=O)NCc1nccs1 [Compound 476] | 0.8808 ± 0.0012 | 
O=C(NCc1ccccn1)C(=O)[C@@H](Cc1ccccc1)NC(=O)[C@@H]1C[C@@H]2CCC[C@@H]2N1C(=O)C1CCC(F)(F)CC1 [Compound 263] |  | IC50 [1]: 1.56 ± 0.05 µM
C[C@@H](OCc1cc(F)cc(F)c1)C(=O)N[C@H](Cc1ccccc1)C(=O)C(=O)NCc1ccccn1 [Compound 2] | 0.0176 ± 0.0004 | 
O=C(NCc1ccccn1)C(=O)[C@@H](Cc1ccccc1)NC(=O)C1(NC(=O)[C@@H]2C[C@@H]3[C@H](C2)C3(F)F)CC1 [Compound 161] | 0.0153 ± 0.0016 | 
COC[C@@H](NC(=O)NC1CC(F)(F)C1)C(=O)N[C@H](Cc1ccccc1)C(=O)C(=O)NCc1nccs1 [Compound 549] | 0.0212 ± 0.0006 | 
C[C@@H](NC(=O)C1CCC(F)(F)C1)C(=O)N[C@H](Cc1ccccc1)C(=O)C(=O)NCc1ccccn1 (stereo partly shown) [Compound 121] | 0.0507 ± 0.0004 | 
O=C(CC1CCC(F)(F)CC1)NC1(C(=O)N[C@H](Cc2ccccc2)C(=O)C(=O)NCc2ccccn2)Cc2ccccc2C1 [Compound 244] | 0.0151 ± 0.0001 | 
O=C(CNC(=O)c1ccc(Cl)c(Cl)c1)N[C@H](Cc1ccccc1)C(=O)C(=O)NCc1ccccn1 [Compound 440] | 0.0204 ± 0.0004 | 
O=C(CNC(=O)c1ccccn1)N[C@H](Cc1ccccc1)C(=O)C(=O)NCc1nccs1 [Compound 479] |  | IC50 [1]: 2.24 ± 0.1 µM
CC(C)[C@@H]1CC[C@@H](C)C[C@H]1OCC(=O)NC1(C(=O)N[C@H](Cc2ccccc2)C(=O)C(=O)NCc2ccccn2)CCC1 [Compound 206] | 0.018 ± 0.0005 | 
O=C(NCc1ccccn1)C(=O)[C@@H](Cc1ccccc1)NC(=O)[C@H]1C[C@@H]2C[C@@H]2N1C(=O)CC1CCC(F)(F)CC1 [Compound 273] | 0.017 ± 0.0001 | 
O=C(NCc1ccccn1)C(=O)[C@@H](Cc1ccccc1)NC(=O)[C@@H]1[C@H]2CCC[C@H]2CN1C(=O)CC1CCC(F)(F)CC1 [Compound 259] | 0.0214 ± 0.0035 | 
COc1ccc(CCCC(=O)N[C@H](C)C(=O)N[C@H](Cc2ccccc2)C(=O)C(=O)NCc2ccccn2)cc1 [Compound 63] | 0.0196 ± 0.0003 | 
O=C(NCc1ccccn1)C(=O)[C@@H](Cc1ccccc1)NC(=O)C1(NC(=O)c2cc(C(F)(F)F)[nH]n2)CCC1 [Compound 198] | 0.0181 ± 0.0027 | 
O=C(NCc1cnc(Cl)s1)C(=O)[C@@H](Cc1ccccc1)NC(=O)c1ccccc1 [Compound 463] |  | IC50 [1]: 95.2 ± 5.99 µM
CC(C)(OCc1ccc(OC(F)(F)F)cc1)C(=O)N[C@H](Cc1ccccc1)C(=O)C(=O)NCc1ccccn1 [Compound 17] | 0.0198 ± 0.0002 | 
C[C@@H](OCc1ccccc1)C(=O)N[C@H](Cc1ccccc1)C(=O)C(=O)NCc1ccc(C(F)(F)F)cn1 [Compound 38] | 0.7963 ± 0.0011 | 
C[C@@H](NC(=O)C(C)(C)Oc1ccc([Si](C)(C)C)cc1Cl)C(=O)N[C@H](Cc1ccccc1)C(=O)C(=O)NCc1ccccn1 [Compound 81] |  | IC50 (IC50, inhibition of SARS-CoV-2 M^pro enzyme activity, values in nM): 0.0279 ± 0.0055 µM
O=C(Cc1noc(-c2cc(F)ccc2F)n1)N[C@H](Cc1ccccc1)C(=O)C(=O)NCc1nccs1 [Compound 520] | 0.1613 ± 0.0012 | 
C[C@@H](NC(=O)[C@H]1CC(=O)N([C@@H](C)c2ccccc2)C1)C(=O)N[C@H](Cc1ccccc1)C(=O)C(=O)NCc1ccccn1 [Compound 122] | 0.2809 ± 0.0023 | 

SMILES | IC50 [2] [µM] | also measured
O=C(CNC(=O)C1CCC(F)(F)CC1)N[C@H](Cc1ccccc1)C(=O)C(=O)NCc1cscn1 [Compound 421] | 0.0207 ± 0.0005 | 
O=C(Cn1cc(-c2cc(F)c(F)cc2F)cn1)N[C@H](Cc1ccccc1)C(=O)C(=O)NCc1nccs1 [Compound 506] | 0.105 ± 0.0029 | 
O=C(NCc1ccccn1)C(=O)[C@@H](Cc1ccccc1)NC(=O)[C@@H](Cc1cccnc1)NC(=O)C1CCC(F)(F)CC1 [Compound 218] | 0.0234 ± 0.0008 | 
C[C@@H](NC(=O)/C=C/c1ccc(F)cc1)C(=O)N[C@H](Cc1ccccc1)C(=O)C(=O)NCc1ccccn1 [Compound 109] | 0.1689 ± 0.0001 | 
O=C(NCc1ccccn1)C(=O)[C@@H](Cc1ccccc1)NC(=O)C1(NC(=O)[C@H]2CC[C@@H](F)CC2)CC1 [Compound 162] | 0.0175 ± 0.0008 | 
C[C@@H](NC(=O)c1ccc(Cl)cc1)C(=O)N[C@H](Cc1ccccc1)C(=O)C(=O)NCc1ccccn1 [Compound 144] | 0.019 ± 0.0003 | 
O=C(CNC(=O)C1CCCC(F)(F)C1)N[C@H](Cc1ccccc1)C(=O)C(=O)NCc1cscn1 (stereo partly shown) [Compound 430] | 0.02 ± 0.0005 | 
O=C(NCc1ccccn1)C(=O)[C@@H](Cc1ccccc1)NC(=O)C1(NC(=O)C2CC(F)(F)C2)CCC1 [Compound 204] | 0.0367 ± 0.0009 | 
O=C(CNC(=O)c1ccc(F)c(Cl)c1)N[C@H](Cc1ccccc1)C(=O)C(=O)NCc1ccccn1 [Compound 441] | 0.0185 ± 0.0003 | 
C[C@@H](OCc1ccccc1)C(=O)N[C@H](Cc1ccccc1)C(=O)C(=O)NCc1cnccn1 [Compound 27] | 0.8858 ± 0.0002 | 
O=C(NCc1nccs1)C(=O)[C@@H](Cc1ccccc1)NC(=O)c1cccc(F)c1 [Compound 472] | 0.478 ± 0.0048 | 
C[C@@H](NC(=O)C1CCC(F)(F)CC1)C(=O)N[C@H](Cc1ccccc1)C(=O)C(=O)NCc1ncco1 [Compound 352] |  | IC50 [1]: 2.5 ± 0.29 µM
O=C(NCc1ccccn1)C(=O)[C@@H](Cc1ccccc1)NC(=O)[C@H]1Cc2ccccc2CN1C(=O)C1CCC(F)(F)CC1 [Compound 267] | 0.0112 ± 0.0003 | 
O=C(NCc1ccccn1)C(=O)[C@@H](Cc1ccccc1)NC(=O)C1(NC(=O)c2ccc(F)cc2)CCCC1 [Compound 248] | 0.0246 ± 0.0006 | 
O=C(NCc1nccs1)C(=O)[C@@H](Cc1ccccc1)NC(=O)[C@H]1COCCN1C(=O)CC1CCC(F)(F)CC1 [Compound 411] | 0.0155 ± 0.0001 | 
C[C@@H](NC(=O)c1cc(Cl)cc(OC(F)(F)F)c1)C(=O)N[C@H](Cc1ccccc1)C(=O)C(=O)NCc1nccs1 [Compound 383] | 0.0215 ± 0.0008 | 
C[C@@H](NC(=O)c1ccc(Cl)c(F)c1)C(=O)N[C@H](Cc1ccccc1)C(=O)C(=O)NCc1ccccn1 [Compound 98] | 0.0407 ± 0.0019 | 
O=C(CNC(=O)C1CCC(F)(F)CC1)N[C@H](Cc1ccc(Cl)cc1Cl)C(=O)C(=O)NCc1ccccn1 [Compound 450] | 0.0454 ± 0.0002 | 
O=C(CCc1ccccc1)N[C@H](Cc1ccccc1)C(=O)C(=O)NCc1nccs1 [Compound 475] |  | IC50 [1]: 1.22 ± 0.1 µM
C[C@@H](OCc1c(F)cccc1F)C(=O)N[C@H](Cc1ccccc1)C(=O)C(=O)NCc1ccccn1 [Compound 3] | 0.411 ± 0.0282 | 
